Here are results for three molecules from US12178841B2, “Treatment of non-cystic fibrosis bronchiectasis” (priority 2021, dated 2024).

For series [1] the following is noted: ORBIT-3 and RESPIRE-2 trials; cited from earlier work.
For series [2] the following is noted: 1 MIU [33 mg CBA] via I-neb twice a day, up to 6 months, placebo 0.45% saline, cited from earlier work.
Series [3] can be described thus: PROMIS I Phase III clinical study: pulmonary exacerbations under inhaled CMS by I-neb vs placebo. In kind it is in vivo, human.
For series [4] the following is noted: human, in vivo; cited from earlier work.
In series [5] the test system is Pseudomonas aeruginosa. Nature of the series: PROMIS I: Pseudomonas aeruginosa density in sputum. In kind it is in vivo, human. The following applies: for Mean change from baseline in P. aeruginosa density (mITT): n = 176. From the text: Least square means in each treatment group, least square mean difference between treatments, their 95% CIs and associated p-values will be estimated.
Summary statistics of the P. aeruginosa density (log 10 CFU/g sputum) and change from baseline (Visit 2) will be provided by treatment group for each trial visit.
Results of the quantitative analysis for P. aeruginosa density will be presented as colony forming units (CFU) count per gram sputum.

On the set-up of series [6]: species or system human. Conditions: in vivo.
From the text: Safety Variables • incidence of TEAEs; • absolute changes in percent-predicted FEV1 from baseline (Visit 2) to end of treatment (Visit 7); • number of subjects experiencing bronchospasm clinically or spirometrically determined following IMP administration at the start and end of treatment; • P. aeruginosa resistance to colistin sulphate as determined by in-vitro susceptibility testing on sputum from Screening/Randomisation (Visit 1/Visit 2) to Visits 3, 5 and end of treatment (Visit 7) as well as on sputum from Exacerbation Visits and clinic visits due to pneumonia; • emergence of other bacterial colonies and any developing resistance in sputum from Screening (Visit 1) to End of Treatment (Visit 7); • haematology, clinical chemistry and renal function tests; • physical examination and vital signs data; • 12-lead electrocardiogram

Entries after “also recorded” stand apart in the source; their conditions may differ. Where two headings read alike, the source gives them in different places.

As for `O=C(O)c1cn(C2CC2)c2cc(N3CCNCC3)c(F)cc2c1=O` [ciprofloxacin], the primary endpoints result in series [1] was “failed to achieve their primary endpoints”.
Take colistin: in series [2], the “time to first exacerbation (primary endpoint) vs placebo” value is “not to be associated with a statistically significant improvement”.
Turning to colistimethate sodium, in series [3] (CMS 1 MIU (33 mg CBA) by I-neb twice a day, 12 months, placebo 0.95), the “annual rate of exacerbations” value came to 0.58 per patient per year. Further, the “severe exacerbations (requiring intravenous antibiotics and/or hospitalization), RR” value in series [3] (CMS I-neb vs placebo, 95% CI 0.23-0.74, p=0.003) is 0.41. Moreover, the “time to first exacerbation, Hazard Ratio (HR)” value in series [3] (CMS I-neb vs placebo, 95% CI 0.43-0.81, p=0.00074) stood at 0.59. Further, the “rate ratio (RR) of annual rate of exacerbations vs placebo” value in series [3] (CMS I-neb vs placebo, 95% CI 0.46-0.82, p=0.00101) was determined as 0.61. Moreover, the “time to first exacerbation (primary endpoint) vs placebo” value in series [2] is “not statistically different”; in series [2] (listed as CMS) it was “failed to achieve its primary endpoint”. In addition, the “adverse respiratory effects (cough, dyspnoea, bronchospasm, sore throat), people affected” value in series [4] is recorded as “at least 1 in 10”. The “Mean change from baseline in P. aeruginosa density (mITT)” value is reported as −1.59 log10(CFU/mL) in series [5] (Visit 3 (28 days)); −1.39 log10(CFU/mL) in series [5] (Visit 5 (6 months)); −1.56 log10(CFU/mL) in series [5] (Visit 6 (9 months)); −0.86 log10(CFU/mL) in series [5] (Visit 7 (12 months/EOT), includes those who discontinued early). Moreover, the “P. aeruginosa density (in words)” value in series [5] (patients on colistimethate sodium over the study) was “fell rapidly and remained suppressed; also recorded: falls rapidly and remains suppressed”. In addition, in series [6], the broncospasm experienced clinically came out at 0.6%. Besides, the “safety and tolerability (in words)” value in series [6] was “safe and well tolerated”.
